# Data reported in ChEMBL document CHEMBL5465560, “Selectivity Literature for EUbOPEN Chemogenomic Library” (2024).
# What was measured:
# [1] = biological target: T1, Mitogen-activated protein kinase kinase kinase kinase 2 (Homo sapiens) (UniProt Q12851); assay: Selectivity interaction (KinomeScan (DiscoverX)) EUB0000666a MAP4K2; settings: at 10 µM
# T1 sequence (whole entry): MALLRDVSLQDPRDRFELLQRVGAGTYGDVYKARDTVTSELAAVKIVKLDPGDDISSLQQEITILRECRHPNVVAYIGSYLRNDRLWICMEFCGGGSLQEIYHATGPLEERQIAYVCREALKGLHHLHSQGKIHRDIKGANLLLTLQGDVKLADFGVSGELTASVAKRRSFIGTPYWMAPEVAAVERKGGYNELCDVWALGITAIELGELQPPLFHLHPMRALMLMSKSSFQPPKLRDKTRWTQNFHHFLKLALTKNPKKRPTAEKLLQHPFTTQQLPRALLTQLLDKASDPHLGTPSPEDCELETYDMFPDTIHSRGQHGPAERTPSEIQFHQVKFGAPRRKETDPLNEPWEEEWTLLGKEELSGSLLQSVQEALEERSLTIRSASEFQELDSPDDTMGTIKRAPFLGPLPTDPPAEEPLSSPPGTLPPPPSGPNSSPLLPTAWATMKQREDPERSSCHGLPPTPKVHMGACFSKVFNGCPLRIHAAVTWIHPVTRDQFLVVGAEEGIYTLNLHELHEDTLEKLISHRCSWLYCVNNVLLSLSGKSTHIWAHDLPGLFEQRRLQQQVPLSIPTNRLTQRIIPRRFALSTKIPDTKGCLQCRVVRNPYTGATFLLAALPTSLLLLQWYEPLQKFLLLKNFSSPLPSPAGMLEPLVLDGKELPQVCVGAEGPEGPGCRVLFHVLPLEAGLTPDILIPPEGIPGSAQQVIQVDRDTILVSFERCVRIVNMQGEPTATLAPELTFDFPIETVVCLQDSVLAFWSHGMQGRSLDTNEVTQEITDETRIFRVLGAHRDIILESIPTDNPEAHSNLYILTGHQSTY
# [2] = biological target: T2, Histone-arginine methyltransferase CARM1 (Homo sapiens) (UniProt Q86X55); settings: at 1 µM
# T2 sequence (whole entry): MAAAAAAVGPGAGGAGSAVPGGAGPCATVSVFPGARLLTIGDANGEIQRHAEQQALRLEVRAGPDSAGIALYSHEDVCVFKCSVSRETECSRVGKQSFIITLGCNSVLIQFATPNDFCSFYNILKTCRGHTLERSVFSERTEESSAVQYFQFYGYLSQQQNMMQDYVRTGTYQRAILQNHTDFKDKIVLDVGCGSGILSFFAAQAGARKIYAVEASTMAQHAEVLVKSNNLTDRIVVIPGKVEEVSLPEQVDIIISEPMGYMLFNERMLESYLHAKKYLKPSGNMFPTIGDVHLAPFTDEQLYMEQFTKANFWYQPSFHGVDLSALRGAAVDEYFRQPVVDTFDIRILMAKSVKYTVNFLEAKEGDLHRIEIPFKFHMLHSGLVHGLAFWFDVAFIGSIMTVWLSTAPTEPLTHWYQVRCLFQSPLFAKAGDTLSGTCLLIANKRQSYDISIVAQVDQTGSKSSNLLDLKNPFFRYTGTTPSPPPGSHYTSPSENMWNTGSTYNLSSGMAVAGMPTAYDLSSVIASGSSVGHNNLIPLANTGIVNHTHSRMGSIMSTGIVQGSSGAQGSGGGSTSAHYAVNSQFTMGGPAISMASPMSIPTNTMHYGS
# [3] = system: Mast/stem cell growth factor receptor Kit (Homo sapiens), P10721 [A829P]; assay: (§1) Selectivity interaction (KinomeScan (DiscoverX)) EUB0000229b KIT; settings: at 1 µM
# Mast/stem cell growth factor receptor Kit (Homo sapiens), P10721 [A829P], sequence (P10721 whole entry A829P): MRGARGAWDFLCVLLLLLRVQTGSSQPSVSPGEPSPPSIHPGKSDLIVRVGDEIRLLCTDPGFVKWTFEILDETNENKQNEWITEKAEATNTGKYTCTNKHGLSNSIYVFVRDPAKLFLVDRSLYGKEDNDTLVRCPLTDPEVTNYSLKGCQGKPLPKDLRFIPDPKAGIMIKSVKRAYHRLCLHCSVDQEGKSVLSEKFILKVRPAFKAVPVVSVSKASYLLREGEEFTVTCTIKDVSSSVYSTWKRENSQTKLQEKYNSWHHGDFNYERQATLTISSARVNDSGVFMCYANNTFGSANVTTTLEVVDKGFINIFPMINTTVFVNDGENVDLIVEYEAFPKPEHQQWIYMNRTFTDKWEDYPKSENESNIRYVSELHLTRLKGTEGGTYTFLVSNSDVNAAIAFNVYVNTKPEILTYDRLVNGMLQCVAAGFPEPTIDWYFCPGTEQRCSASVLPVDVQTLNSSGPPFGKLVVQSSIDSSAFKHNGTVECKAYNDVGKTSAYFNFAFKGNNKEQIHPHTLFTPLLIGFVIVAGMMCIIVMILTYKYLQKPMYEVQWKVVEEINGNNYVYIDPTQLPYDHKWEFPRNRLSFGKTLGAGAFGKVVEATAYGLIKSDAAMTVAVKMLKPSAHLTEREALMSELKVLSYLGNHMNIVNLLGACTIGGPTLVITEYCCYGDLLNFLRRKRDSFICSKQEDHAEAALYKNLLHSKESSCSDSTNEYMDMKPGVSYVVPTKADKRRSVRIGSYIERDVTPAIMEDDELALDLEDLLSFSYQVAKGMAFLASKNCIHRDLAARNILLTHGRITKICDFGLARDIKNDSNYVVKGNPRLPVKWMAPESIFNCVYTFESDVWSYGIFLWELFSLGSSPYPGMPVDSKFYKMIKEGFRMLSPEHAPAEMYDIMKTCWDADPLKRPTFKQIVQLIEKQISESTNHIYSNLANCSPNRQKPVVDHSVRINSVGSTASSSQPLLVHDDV
# [4] = system: Mast/stem cell growth factor receptor Kit (Homo sapiens), P10721 [D816H]; assay: as §1; settings: at 1 µM
# Mast/stem cell growth factor receptor Kit (Homo sapiens), P10721 [D816H], sequence (P10721 whole entry D816H): as the sequence (P10721 whole entry A829P) above, with D816H, P829A counted along it
# [5] = system: Mast/stem cell growth factor receptor Kit (Homo sapiens), P10721 [D816V]; assay: as §1; settings: at 1 µM
# Mast/stem cell growth factor receptor Kit (Homo sapiens), P10721 [D816V], sequence (P10721 whole entry D816V): as the sequence (P10721 whole entry A829P) above, with D816V, P829A counted along it
# [6] = system: Mast/stem cell growth factor receptor Kit (Homo sapiens), P10721 [L576P]; assay: as §1; settings: at 1 µM
# Mast/stem cell growth factor receptor Kit (Homo sapiens), P10721 [L576P], sequence (P10721 whole entry L576P): as the sequence (P10721 whole entry A829P) above, with L576P, P829A counted along it
# [7] = system: Mast/stem cell growth factor receptor Kit (Homo sapiens), P10721 [V559D,T670I]; assay: as §1; settings: at 1 µM
# Mast/stem cell growth factor receptor Kit (Homo sapiens), P10721 [V559D,T670I], sequence (P10721 whole entry V559D/T670I): as the sequence (P10721 whole entry A829P) above, with V559D, T670I, P829A counted along it
# [8] = system: Mast/stem cell growth factor receptor Kit (Homo sapiens), P10721 [V559D,V654A]; assay: as §1; settings: at 1 µM
# Mast/stem cell growth factor receptor Kit (Homo sapiens), P10721 [V559D,V654A], sequence (P10721 whole entry V559D/V654A): as the sequence (P10721 whole entry A829P) above, with V559D, V654A, P829A counted along it
# [9] = system: Mast/stem cell growth factor receptor Kit (Homo sapiens), P10721 [V559D]; assay: as §1; settings: at 1 µM
# Mast/stem cell growth factor receptor Kit (Homo sapiens), P10721 [V559D], sequence (P10721 whole entry V559D): as the sequence (P10721 whole entry A829P) above, with V559D, P829A counted along it
# [10] = biological target: Mast/stem cell growth factor receptor Kit (Homo sapiens, UniProt P10721); assay: as §1; settings: at 10 µM
# Mast/stem cell growth factor receptor Kit, sequence (P10721 whole entry): as the sequence (P10721 whole entry A829P) above, with P829A counted along it
# [11] = biological target: High affinity nerve growth factor receptor (Homo sapiens, UniProt P04629); assay: Selectivity interaction (KinomeScan (DiscoverX)) EUB0000595a NTRK1; settings: at 10 µM
# High affinity nerve growth factor receptor, sequence (P04629 33-796 limits assumed): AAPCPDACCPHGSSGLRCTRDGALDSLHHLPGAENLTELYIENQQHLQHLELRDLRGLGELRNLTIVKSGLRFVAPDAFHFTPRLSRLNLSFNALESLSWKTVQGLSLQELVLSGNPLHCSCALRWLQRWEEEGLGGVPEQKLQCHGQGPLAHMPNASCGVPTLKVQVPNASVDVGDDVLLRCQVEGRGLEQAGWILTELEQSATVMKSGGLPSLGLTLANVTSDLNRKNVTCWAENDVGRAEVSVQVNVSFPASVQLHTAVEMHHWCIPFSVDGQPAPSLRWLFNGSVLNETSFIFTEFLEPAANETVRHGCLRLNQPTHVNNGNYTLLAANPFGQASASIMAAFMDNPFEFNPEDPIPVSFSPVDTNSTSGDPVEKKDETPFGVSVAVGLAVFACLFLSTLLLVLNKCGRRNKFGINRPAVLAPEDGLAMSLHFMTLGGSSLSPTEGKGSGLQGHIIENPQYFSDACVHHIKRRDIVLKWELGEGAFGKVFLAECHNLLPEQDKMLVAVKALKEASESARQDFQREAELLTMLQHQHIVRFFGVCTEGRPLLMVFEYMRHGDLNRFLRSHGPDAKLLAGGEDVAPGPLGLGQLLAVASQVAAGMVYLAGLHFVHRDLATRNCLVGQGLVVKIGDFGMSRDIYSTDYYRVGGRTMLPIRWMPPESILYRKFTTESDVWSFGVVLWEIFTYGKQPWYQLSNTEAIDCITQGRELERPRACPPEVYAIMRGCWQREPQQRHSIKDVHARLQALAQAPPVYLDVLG
# [12] = biological target: T3, Serine/threonine-protein kinase tousled-like 1 (Homo sapiens) (UniProt Q9UKI8); assay: Selectivity interaction (Ambit KINOMEscan and KiNATiv profiling in Jurkat cells) EUB0000090b TLK1; format: cell-based; settings: at 1 µM
# T3 sequence (whole entry): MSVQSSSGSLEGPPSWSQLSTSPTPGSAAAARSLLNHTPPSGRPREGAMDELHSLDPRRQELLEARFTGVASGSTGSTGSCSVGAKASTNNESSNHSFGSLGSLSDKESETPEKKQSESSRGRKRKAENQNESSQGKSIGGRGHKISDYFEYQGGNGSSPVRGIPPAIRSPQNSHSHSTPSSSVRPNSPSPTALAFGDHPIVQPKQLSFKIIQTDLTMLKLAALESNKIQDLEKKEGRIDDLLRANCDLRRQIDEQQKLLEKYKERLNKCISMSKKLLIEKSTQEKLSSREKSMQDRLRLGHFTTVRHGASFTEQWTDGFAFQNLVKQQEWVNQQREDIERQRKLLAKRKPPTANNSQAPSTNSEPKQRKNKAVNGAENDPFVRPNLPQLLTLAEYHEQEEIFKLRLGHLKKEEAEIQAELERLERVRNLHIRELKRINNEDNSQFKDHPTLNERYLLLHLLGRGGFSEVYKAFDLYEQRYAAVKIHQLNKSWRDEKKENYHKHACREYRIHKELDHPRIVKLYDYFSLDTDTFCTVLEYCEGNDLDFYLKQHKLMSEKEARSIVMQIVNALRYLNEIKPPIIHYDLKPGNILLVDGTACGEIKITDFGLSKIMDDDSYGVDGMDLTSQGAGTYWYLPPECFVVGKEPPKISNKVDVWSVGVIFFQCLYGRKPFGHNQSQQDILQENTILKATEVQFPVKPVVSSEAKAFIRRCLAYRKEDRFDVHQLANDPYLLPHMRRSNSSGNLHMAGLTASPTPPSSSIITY
# [13] = biological target: RAC-beta serine/threonine-protein kinase (Homo sapiens) (UniProt P31751); assay: Selectivity interaction (Rxn Biology Kinase assay) EUB0001632a AKT2; settings: at 10 µM
# RAC-beta serine/threonine-protein kinase (Homo sapiens), sequence (P31751 whole entry): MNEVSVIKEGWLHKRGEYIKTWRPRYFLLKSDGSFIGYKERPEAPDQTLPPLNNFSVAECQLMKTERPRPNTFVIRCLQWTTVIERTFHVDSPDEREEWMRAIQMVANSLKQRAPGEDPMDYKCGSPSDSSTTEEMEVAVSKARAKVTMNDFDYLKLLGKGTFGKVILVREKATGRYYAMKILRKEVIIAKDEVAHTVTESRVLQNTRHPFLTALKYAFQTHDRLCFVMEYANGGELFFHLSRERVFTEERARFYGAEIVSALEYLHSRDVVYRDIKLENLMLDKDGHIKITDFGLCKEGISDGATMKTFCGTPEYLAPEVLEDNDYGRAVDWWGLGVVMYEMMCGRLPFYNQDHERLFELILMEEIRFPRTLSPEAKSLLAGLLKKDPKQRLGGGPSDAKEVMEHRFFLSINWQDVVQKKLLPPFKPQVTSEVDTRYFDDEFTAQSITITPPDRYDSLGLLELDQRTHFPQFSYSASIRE
# [14] = biological target: Casein kinase II subunit alpha' (Homo sapiens) (UniProt P19784); assay: Selectivity interaction (Kinase panel (Z-LYTE Assay)) EUB0001632a CSNK2A2; settings: at 10 µM
# Casein kinase II subunit alpha' (Homo sapiens), sequence (P19784 whole entry, looked up): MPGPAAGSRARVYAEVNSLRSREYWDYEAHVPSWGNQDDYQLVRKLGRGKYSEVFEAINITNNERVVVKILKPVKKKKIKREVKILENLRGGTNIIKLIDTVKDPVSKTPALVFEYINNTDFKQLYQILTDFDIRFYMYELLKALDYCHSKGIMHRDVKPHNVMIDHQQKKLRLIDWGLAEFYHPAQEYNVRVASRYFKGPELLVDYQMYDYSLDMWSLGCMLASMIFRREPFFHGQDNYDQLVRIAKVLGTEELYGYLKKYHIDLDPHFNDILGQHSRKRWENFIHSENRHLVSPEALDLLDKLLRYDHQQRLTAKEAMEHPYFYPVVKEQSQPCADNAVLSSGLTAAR
# [15] = biological target: Dual specificity mitogen-activated protein kinase kinase 2 (Homo sapiens) (UniProt P36507); assay: Selectivity interaction (LanthaScreen Eu Kinase Binding Assay) EUB0001632a MAP2K2; settings: at 10 µM
# Dual specificity mitogen-activated protein kinase kinase 2 (Homo sapiens), sequence (P36507 whole entry): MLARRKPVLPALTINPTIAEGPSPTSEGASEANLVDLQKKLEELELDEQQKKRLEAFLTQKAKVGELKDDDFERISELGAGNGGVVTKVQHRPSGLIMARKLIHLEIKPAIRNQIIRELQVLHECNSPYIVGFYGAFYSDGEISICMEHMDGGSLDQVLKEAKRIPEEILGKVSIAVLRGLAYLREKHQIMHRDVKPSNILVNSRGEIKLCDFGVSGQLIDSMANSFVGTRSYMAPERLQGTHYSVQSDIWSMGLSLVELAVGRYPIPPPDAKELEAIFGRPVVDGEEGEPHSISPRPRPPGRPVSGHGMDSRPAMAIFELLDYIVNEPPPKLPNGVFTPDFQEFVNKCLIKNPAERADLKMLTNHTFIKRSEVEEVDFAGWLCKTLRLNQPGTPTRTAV
compound,measurement,setting,value
O=C(NOC[C@H](O)CO)c1ccc(F)c(F)c1Nc1ccc(I)cc1F,% of control,[1],100%
CNCCN1CCC(c2cc(CN(C)C(=O)c3cccc(Oc4ccccc4)c3)ccn2)CC1,% activity,[2],75%
COc1cc(N(C)c2ccnc3ccc(C(F)(F)F)cc23)cc(OC)c1OC,% binding,[3],72%
same,% binding,[4],79%
same,% binding,[5],95%
same,% binding,[6],100%
same,% binding,[7],94%
same,% binding,[8],100%
same,% binding,[9],95%
same,% binding,[10],84%
COCC(=O)NC/C=C/c1ccc2ncnc(Nc3ccc(Oc4ccc(C)nc4)c(C)c3)c2c1 [CP-724714],% of control,[11],89%
CN(C)C/C=C/C(=O)Nc1ccc(C(=O)N2CCCC(Nc3ncc(Cl)c(-c4c[nH]c5ccccc45)n3)C2)cc1 (stereo not given),% of control,[12],92%
Cn1cc(-n2cnc3c(NCc4nc5cc(Cl)c(Cl)cc5[nH]4)nc(N4CCOCC4)nc32)cn1,% of inhibition,[13],1.65%
same,% of control,[14],1.8%
same,% of inhibition,[15],-1.07%
